Reference: patent US20100240029A1, “Cholesterol-Regulating Complex of SIRT1 and LXR and Methods of Use” (Massachusetts Institute of Technology, priority 2006, published 2010)
Where two headings read alike, the source gives them in different places. Peptide text beside a SMILES is read from it. * marks the point of attachment. Cbz = O=C(OCc1ccccc1)*

How the values were obtained:
[1] = tested on: mouse ABCA1 promoter (LXRE); experiment: mouse ABCA1 promoter driven luciferase reporter assay in HEK293T cells; format: cell-based; settings: for basal activity of control reporter missing the LXRE / induction of luciferase reporter driven by wildtype ABCA1 promoter: 6 h; for basal activity of control reporter missing the LXRE: 10 mM nicotinamide or 25 μM MG132; for induction of luciferase reporter driven by wildtype ABCA1 promoter: with 10 μM 22(R)—HC and 1 μM 9-cisRA, 10 mM nicotinamide, 25 μM MG132 or both; for inhibition of 22(R)—HC+9-cisRA-induced luciferase expression, wildtype ABCA1 promoter: 10 mM nicotinamide or 1 μM TSA
Experimental: The luciferase reporter plasmid pGL3-ABCA1 was created by inserting the −847 to +244 of mouse ABCA1 promoter region into KpnI-XhoI sites of pGL3 vector (Promega, Madison, Wi). pGL3-ABCA1-LXRE, the LXRE mutant version of pGL3-ABCA1, was created by deleting the LXRE from wildtype promoter of mouse ABCA1.
For the luciferase assay, MEFIs or HEK293T cells plated in 24-well plates were transfected with 100 ng of pGL3-ABCA1 or pGL3-ABCA1-LXRE, and 10 ng of pRL-TK (Renilla luciferase; Promega). The cells transfected with wildtype (WT) or LXRE mutant (−LXRE) mouse ABCA1 promoter driven luciferase reporter vectors were treated with 1 μM Trichostatin A (TSA), an inhibitor of class I and II deacetylases, or 10 mM nicotinamide (Nico), or both 10 mM nicotinamide+1 μM TSA. Cells transfected with the LXRE mutant vector were incubated in DMEM with 10% FBS in the absence (solid bars) or presence (open bars) of 10 μM 22(R)—HC and 1 μM 9-cisRA (FIG. 2b). Luciferase activity was then measured by using the Dual-Luciferase Reporter Assay System (Promega) 6 or 24 h later. The final GL (firefly luciferase) activity was normalized with co-expressed RL (Renilla luciferase) activity. The experiments were performed in duplicate and were repeated 3 times.
HEK293T cells transfected with wildtype (WT; FIG. 4g, left panel) or LXRE mutant (−LXRE; FIG. 4g, right panel) mouse ABCA1 promoter driven luciferase reporter vectors were treated with either 10 mM nicotinamide (Nico), 25 μM MG132, or both 10 mM nicotinamide+25 μM MG132, in the absence (solid bars) or presence (open bars) of 10 μM 22(R)—HC and 1 μM 9-cisRA for 6 h. Luciferase activities were measured and normalized as in Example 5.

HA-LXRβ = HA-LXRβ protein level in HEK293T cells by western blotting; format: cell-based, mouse; settings: 6 h; for levels of HA-LXRβ protein: 1 μM TSA, 10 mM nicotinamide or 25 μM MG132
Experimental: HEK293T cells expressing HA-LXRβ driven by an exogenous CMV promoter were transfected either with pSuper vector, or with a pSuper-SIRT1 RNAi construct. Cells were harvested 3 days after transfection and the levels of HA-LXRβ and SIRT1 were analyzed by western blotting using antibodies to HA and SIRT1. […] Since there was no detectable reduction of LXR mRNA in SIRT1−/− mice (FIG. 3a), SIRT1 regulates LXR protein levels post-transcriptionally.
HEK293T cells expressing HA-LXRβ were treated with either control medium (FIG. 3c, lane 1), or medium with 1 μM TSA (lane 2), 10 mM nicotinamide (lane 3), 25 μM MG132 (carbobenzyloxy-Leu-Leu-Leu-al, a proteasome inhibitor) (lane 4), or 10 mM nicotinamide plus 25 μM MG132 (lane 5) for 6 h. Cells were then harvested and the levels of HA-LXRβ and SIRT1 were analyzed by western blotting using antibodies to HA (upper images) and SIRT1 (middle images). […] Since there was no detectable reduction of LXR's mRNA in SIRT1−/− mice (see Example 9, FIG. 3a), SIRT1 regulates LXR protein levels post-transcriptionally. It is believed that inhibition of SIRT1 activity by nicotinamide increases the protein levels of LXR by interfering with proteasome-mediated LXR degradation.
The basis for the finding that LXR activity is inversely correlated with protein levels was next examined. Since acetylation of lysine residues can block ubiquitination and SIRT1 is a deacetylase, loss of SIRT1 activity might stabilize LXR proteins by increasing the steady state level of LXR acetylation, thus inhibiting the ubiquitin/proteasome degradation pathway.

LXR targets = experiment: LXR target mRNAs in livers of mice fed T0901317 (real-time PCR); format: in vivo, mouse; settings: 10 mg/kg oral gavage, 8 days
Excerpt: Total RNA was isolated from mouse livers, testes, thioglycolate-stimulated peritoneal macrophages, and ovaries by a Qiagen RNeasy mini-kit (Qiagen Inc., Calencia, Ca.). For real-time PCR analysis, cDNA was synthesized by SuperScript III reverse transcriptase (Invitrogen, Carlsbad, Calif.) with random primers. The resulting cDNA was then subjected to PCR analysis with gene-specific primers in the presence of Cybergreen (Qiagen Inc., Calencia, Ca.). Relative abundance of mRNA was obtained by normalization to cyclophilin levels. […] The mRNA levels of ABCA1 were quantified by phosphoimager and normalized against the corresponding actin levels.
To gain further insight into the effect of SIRT1 on LXR function in vivo, wildtype and SIRT1^−/− animals were analyzed for their response to 8-day oral administration of the LXR agonist T0901317 (N-(2,2,2-trifluoro-ethyl)-N-[4-(2,2,2-trifluoro-1-hydroxy-1-trifluoromethyl-ethyl)-phenyl]-benzenesulfonamide)^53.
2-6 month old SIRT1−/− and control males were fed with T0901317 (10 mg/kg) by oral gavage, plasma were collected before and after feeding for plasma lipid analyses. […] Total RNA from liver of wildtype animals without (black filled bar) or fed with 10 mg/kg T0901317 (black striped bar) and SIRT1^−/− mice without (open bar) or with T0901317 (gray striped bar) were analyzed by real-time PCR. […]

[2] = plasma and liver lipids of mice after 8-day oral T0901317; format: in vivo, mouse
Experimental: To determine the total cholesterol levels in mouse tissues, SIRT1^−/− mice and control littermates were fasted for four hours from the beginning of the daylight cycle before sacrificing. Tissues were then harvested and weighted. Total cholesterol from liver and testis were extracted and measured by GC as described previously^70, 71. Total lipids including triglycerides were also dissolved into a solution containing 60% butanol, 13% methanol, and 27% Triton X-100, and measured with the enzymatic, colorimetric assay kits from Wako.
2-6 month old SIRT1−/− and control males were fed with T0901317 (10 mg/kg) by oral gavage, plasma were collected before and after feeding for plasma lipid analyses. Tissues were collected after feeding for further analyses. Total RNA from liver of wildtype animals without (black filled bar) or fed with 10 mg/kg T0901317 (black striped bar) and SIRT1^−/− mice without (open bar) or with T0901317 (gray striped bar) were analyzed by real-time PCR. […] However, the induction of these targets in SIRT1^−/− mice was blunted. Total protein lysates were obtained from livers of indicated mice and analyzed for the levels of ABCA1 protein by immunoblotting (FIG. 3c). (As previously observed, ABCA1 proteins comprise multiple bands by western blotting^78.)
Plasma results in FIG. 3, panels d, e, and f represent the same mice before and after 8-days administration of T0901317. […]

[3] = through induction of SREBP-1c; cited from earlier work
THP-1 cells = experiment: apoAI-mediated [3H]cholesterol efflux from THP-1 cells; format: cell-based, human; settings: THP-1, 10 mM nicotinamide for 48 h, efflux to 15 μg/ml apoAI for 24 h
Experimental: For the human monocytic cell line THP-1 cells, cells were treated with 10 mM nicotinamide in RPMI1640/10% FBS for 48 h, then cholesterol loaded with 50 μg/ml of LDL and 1 μCi/ml of [^3H]cholesterol in RPMI1640/1% FBS/0.2% BSA medium for 24 h. Cells were washed with PBS and incubated in RPMI 1640/0.2% BSA with or without 15 μg/ml apoAI for 24 h. The medium and cells were then separated, and cells were lysed with 0.2N NaOH. The radioactivity recovered in the medium and cell lysates were measured and the apoAI-mediated cholesterol efflux was calculated as described above.

[4] = tested on: T1, NH2-terminal HA-tagged mouse LXRβ
T1 sequence: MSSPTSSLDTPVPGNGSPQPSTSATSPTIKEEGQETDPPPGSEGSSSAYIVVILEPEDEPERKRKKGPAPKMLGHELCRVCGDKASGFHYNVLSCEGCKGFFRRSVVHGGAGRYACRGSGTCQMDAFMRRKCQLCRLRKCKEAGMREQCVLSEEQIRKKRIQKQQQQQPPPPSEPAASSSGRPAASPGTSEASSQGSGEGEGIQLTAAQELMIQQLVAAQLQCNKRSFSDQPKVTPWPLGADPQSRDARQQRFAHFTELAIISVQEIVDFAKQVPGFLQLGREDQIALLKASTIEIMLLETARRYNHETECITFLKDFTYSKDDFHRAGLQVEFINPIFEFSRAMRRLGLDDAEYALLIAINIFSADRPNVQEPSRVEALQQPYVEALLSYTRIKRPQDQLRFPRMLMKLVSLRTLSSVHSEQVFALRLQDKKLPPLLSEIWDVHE

[5] = target: T2, NH2-terminal HA-tagged mouse LXRβ
T2 chain: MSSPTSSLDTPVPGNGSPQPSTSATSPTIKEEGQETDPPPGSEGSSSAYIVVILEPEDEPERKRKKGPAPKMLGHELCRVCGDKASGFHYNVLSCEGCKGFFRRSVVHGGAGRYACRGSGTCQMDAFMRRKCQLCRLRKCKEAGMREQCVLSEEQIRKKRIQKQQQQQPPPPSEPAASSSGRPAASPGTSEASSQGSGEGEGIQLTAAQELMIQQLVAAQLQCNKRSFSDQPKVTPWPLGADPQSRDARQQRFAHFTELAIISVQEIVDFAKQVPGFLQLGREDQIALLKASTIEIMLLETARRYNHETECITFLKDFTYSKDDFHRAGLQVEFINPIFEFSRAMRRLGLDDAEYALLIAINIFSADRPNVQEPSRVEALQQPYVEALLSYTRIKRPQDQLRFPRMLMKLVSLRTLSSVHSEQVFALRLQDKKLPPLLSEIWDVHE

Molecule: CC(C)C[C@@H](C=O)NC(=O)[C@H](CC(C)C)NC(=O)[C@H](CC(C)C)NC(=O)OCc1ccccc1 [MG132, carbobenzyloxy-Leu-Leu-Leu-al] (Cbz-Leu-Leu-Leu-aldehyde)
- basal activity of control reporter missing the LXRE [1]: not altered
- induction of luciferase reporter driven by wildtype ABCA1 promoter [1]: inhibited the reporter to the same extent as nicotinamide
- levels of HA-LXRβ protein (HA-LXRβ): increase the steady state levels of LXR
- levels of HA-LXRβ protein when SIRT1 is inhibited by nicotinamide (HA-LXRβ; 25 μM MG132 plus 10 mM nicotinamide (lane 4 vs. lane 5)): not when SIRT1 is inhibited by nicotinamide

Molecule: O=S(=O)(c1ccccc1)N(CC(F)(F)F)c1ccc(C(O)(C(F)(F)F)C(F)(F)F)cc1 [T0901317, N-(2,2,2-trifluoro-ethyl)-N-[4-(2,2,2-trifluoro-1-hydroxy-1-trifluoromethyl-ethyl)-phenyl]-benzenesulfonamide]
- induction of LXR targets SREBP-1c, LPL and ABCA1 in liver (LXR targets; SIRT1−/− mice): blunted
- expression of LXR targets SREBP-1c, LPL and ABCA1 at the RNA level in liver (LXR targets; wildtype mice): significantly induced
- induction of plasma and hepatic triglyceride accumulation ([2]; SIRT1−/− vs wildtype mice, 10 mg/kg oral, 8 days): reduced response
- plasma cholesterol levels after feeding ([2]; SIRT1−/− vs wildtype treated mice, especially HDL size particles): Lower plasma cholesterol levels
- plasma and hepatic triglycerides [3]: elevation of plasma and hepatic triglycerides

Molecule: CC(/C=C/C(=O)NO)=C\[C@@H](C)C(=O)c1ccc(N(C)C)cc1 [TSA, Trichostatin A]
- inhibition of 22(R)—HC+9-cisRA-induced luciferase expression, wildtype ABCA1 promoter [1]: not inhibited

Molecule: NC(=O)c1cccnc1 [nicotinamide]
- inhibition of 22(R)—HC+9-cisRA-induced luciferase expression, wildtype ABCA1 promoter [1]: 50%
- basal activity of control reporter missing the LXRE [1]: not altered
- induction of luciferase reporter driven by wildtype ABCA1 promoter [1]: blunted the induction
- suppression of apoAI-mediated [3H]cholesterol efflux (THP-1 cells): roughly three-fold
- levels of HA-LXRβ protein (HA-LXRβ): elevated levels

Molecule: human SIRT1 H355Y, inactive deacetylase mutant
- amount of ubiquitin-conjugated LXR (anti-HA immunoprecipitation, western blot with anti-ubiquitin) [4]: but not the inactive mutant hSIRT1HY increased the amount of ubiquitin-conjugated LXR in transfected HEK293T cells

B1: human SIRT1 protein (protein)
chain: MADEAALALQPGGSPSAAGADREAASSPAGEPLRKRPRRDGPGLERSPGEPGGAAPEREVPAAARGCPGAAAAALWREAEAEAAAAGGEQEAQATAAAGEGDNGPGLQGPSREPPLADNLYDEDDDDEGEEEEEAAAAAIGYRDNLLFGDEIITNGFHSCESDEEDRASHASSSDWTPRPRIGPYTFVQQHLMIGTDPRTILKDLLPETIPPPELDDMTLWQIVINILSEPPKRKKRKDINTIEDAVKLLQECKKIIVLTGAGVSVSCGIPDFRSRDGIYARLAVDFPDLPDPQAMFDIEYFRKDPRPFFKFAKEIYPGQFQPSLCHKFIALSDKEGKLLRNYTQNIDTLEQVAGIQRIIQCHGSFATASCLICKYKVDCEAVRGDIFNQVVPRCPRCPADEPLAIMKPEIVFFGENLPEQFHRAMKYDKDEVDLLIVIGSSLKVRPVALIPSSIPHEVPQILINREPLPHLHFDVELLGDCDVIINELCHRLGGEYAKLCCNPVKLSEITEKPPRTQKELAYLSELPPTPLHVSEDSSSPERTSPPDSSVIVTLLDQAAKSNDDLDVSESKGCMEEKPQEVQTSRNVESIAEQMENPDLKNVGSSTGEKNERTSVAGTVRKCWPNRVAKEQISRRLDGNQYLFLPPNRYIFHGAEVYSDSEDDVLSSSSCGSNSDSGTCQSPSLEEPMEDESEIEEFYNGLEDEPDVPERAGGAGFGTDGDDQEAINEAISVKQEVTDMNYPSNKS
- amount of ubiquitin-conjugated LXR (anti-HA immunoprecipitation, western blot with anti-ubiquitin) [5]: expression of an active SIRT1 transgene (hSIRT1) but not the inactive mutant hSIRT1HY increased the amount of ubiquitin-conjugated LXR in transfected HEK293T cells
